Key:
Protein cereblon [1] = biological target: T1, Protein cereblon (Homo sapiens, UniProt Q96SW2); experiment: Induction of CRBN degradation in human HeLa cells incubated for 4 hrs; assay type: cell-based
Protein cereblon [2] = biological target: T1, Protein cereblon; experiment: Induction of CRBN degradation in human HeLa cells at 1 uM incubated for 4 hrs relative to control; assay type: cell-based
[3] = biological target: T2, Bromodomain-containing protein 4 (Homo sapiens, UniProt O60885); experiment: Induction of BRD4 degradation in HEK293 cells after 4 hrs; assay type: cell-based
MV4-11 = experiment: Antiproliferative activity against human MV4-11 cells
[4] = biological target: Bromodomain-containing protein 3 (Homo sapiens, UniProt Q15059); experiment: Induction of BRD3 degradation in HEK293 cells after 4 hrs; assay type: cell-based
[5] = biological target: Bromodomain-containing protein 2 (Homo sapiens, UniProt P25440); experiment: Induction of BRD2 degradation in HEK293 cells after 4 hrs; assay type: cell-based
[6] = biological target: Transcription intermediary factor 1-alpha (Homo sapiens, UniProt O15164); experiment: Inhibition of His-tagged TRIM24 (unknown origin) expressed in Escherichia coli BL21(DE3)pLysS competent cells using biotinylated-H3K23ac peptide as substrate incubated for 30 mins by Alphascreen assay
HeLa = experiment: Antiproliferative activity against human HeLa cells; assay type: functional, cell-based
[7] = biological target: T2, Bromodomain-containing protein 4; experiment: Induction of BRD4 degradation in human HeLa cells assessed as maximum degradation at 30 nM after 12 hrs relative to control; assay type: cell-based
HFF-1 = experiment: Antiproliferative activity against human HFF-1 cells; assay type: functional, cell-based
[8] = biological target: T3, Tyrosine-protein kinase BTK (Homo sapiens, UniProt Q06187); experiment: Induction of BTK degradation in human K562 cells; assay type: cell-based
[9] = biological target: T3, Tyrosine-protein kinase BTK; experiment: Induction of BTK degradation in human K562 cells assessed as maximum degradation relative to control; assay type: cell-based
[10] = biological target: T4, Tyrosine-protein kinase Blk (Homo sapiens, UniProt P51451); experiment: Induction of BLK degradation in human K562 cells; assay type: cell-based
[11] = biological target: T4, Tyrosine-protein kinase Blk; experiment: Induction of BLK degradation in human K562 cells assessed as maximum degradation relative to control; assay type: cell-based
Target sequence in this assay (P51451 2-505 limits assumed): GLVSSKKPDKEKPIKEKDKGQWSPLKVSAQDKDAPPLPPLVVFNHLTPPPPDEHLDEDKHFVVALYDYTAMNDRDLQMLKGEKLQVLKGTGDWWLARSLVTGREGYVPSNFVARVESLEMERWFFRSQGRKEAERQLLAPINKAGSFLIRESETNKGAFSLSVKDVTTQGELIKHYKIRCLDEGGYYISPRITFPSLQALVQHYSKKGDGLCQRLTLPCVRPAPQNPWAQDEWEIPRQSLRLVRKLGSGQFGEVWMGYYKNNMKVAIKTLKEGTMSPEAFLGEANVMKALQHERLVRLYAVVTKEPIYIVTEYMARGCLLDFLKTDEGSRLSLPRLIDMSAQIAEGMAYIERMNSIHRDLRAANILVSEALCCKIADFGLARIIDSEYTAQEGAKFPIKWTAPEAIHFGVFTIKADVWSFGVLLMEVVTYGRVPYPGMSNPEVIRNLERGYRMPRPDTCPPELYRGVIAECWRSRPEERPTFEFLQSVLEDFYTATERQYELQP

[12] = biological target: T3, Tyrosine-protein kinase BTK; experiment: Induction of BTK degradation in human MINO cells assessed as maximum degradation relative to control; assay type: cell-based
[13] = biological target: T3, Tyrosine-protein kinase BTK; experiment: Induction of BTK degradation in human MINO cells; assay type: cell-based
[14] = biological target: ALK tyrosine kinase receptor (Homo sapiens) (UniProt Q9UM73); experiment: Induction of ALK degradation in human SU-DHL-1 cells assessed as maximum degradation at 30 nM after 12 hrs relative to control; assay type: cell-based
SU-DHL-1 = experiment: Antiproliferative activity against human SU-DHL-1 cells; assay type: functional, cell-based
[15] = biological target: Transcription intermediary factor 1-alpha (Homo sapiens) (UniProt O15164); experiment: Induction of TRIM24 degradation in HEK293FT cells assessed as maximum degradation at 5 uM relative to control; assay type: cell-based
Huh-7 = experiment: Antiproliferative activity against human Huh-7 cells; assay type: functional, cell-based
A549 [16] = experiment: Antiproliferative activity against human A549 cells; assay type: functional, cell-based
HepG2 = experiment: Antiproliferative activity against human HepG2 cells; assay type: functional, cell-based
HCT-116 [17] = experiment: Antiproliferative activity against p53 knockout human HCT-116 cells; assay type: functional, cell-based
HCT-116 [18] = experiment: Antiproliferative activity against human HCT-116 cells; assay type: functional, cell-based
[19] = Half life in mouse; assay type: ADME, organism-based; conditions: in vivo
[20] = AUC in mouse; assay type: ADME, organism-based; conditions: in vivo
[21] = biological target: E3 ubiquitin-protein ligase Mdm2 (Homo sapiens, UniProt Q00987); experiment: Displacement of p53 from human MDM2 by HTRF assay
A549 [22] = experiment: Antitumor activity against human A549 cells xenografted model assessed as tumor growth inhibition at 30 mg/kg; assay type: functional; conditions: read-out: TGI
[23] = biological target: ALK tyrosine kinase receptor (Homo sapiens) (UniProt Q9UM73); experiment: Induction of ALK degradation in human SU-DHL-1 cells assessed as maximum degradation at 300 nM after 12 hrs relative to control; assay type: cell-based

T3 sequence (Q06187 whole entry): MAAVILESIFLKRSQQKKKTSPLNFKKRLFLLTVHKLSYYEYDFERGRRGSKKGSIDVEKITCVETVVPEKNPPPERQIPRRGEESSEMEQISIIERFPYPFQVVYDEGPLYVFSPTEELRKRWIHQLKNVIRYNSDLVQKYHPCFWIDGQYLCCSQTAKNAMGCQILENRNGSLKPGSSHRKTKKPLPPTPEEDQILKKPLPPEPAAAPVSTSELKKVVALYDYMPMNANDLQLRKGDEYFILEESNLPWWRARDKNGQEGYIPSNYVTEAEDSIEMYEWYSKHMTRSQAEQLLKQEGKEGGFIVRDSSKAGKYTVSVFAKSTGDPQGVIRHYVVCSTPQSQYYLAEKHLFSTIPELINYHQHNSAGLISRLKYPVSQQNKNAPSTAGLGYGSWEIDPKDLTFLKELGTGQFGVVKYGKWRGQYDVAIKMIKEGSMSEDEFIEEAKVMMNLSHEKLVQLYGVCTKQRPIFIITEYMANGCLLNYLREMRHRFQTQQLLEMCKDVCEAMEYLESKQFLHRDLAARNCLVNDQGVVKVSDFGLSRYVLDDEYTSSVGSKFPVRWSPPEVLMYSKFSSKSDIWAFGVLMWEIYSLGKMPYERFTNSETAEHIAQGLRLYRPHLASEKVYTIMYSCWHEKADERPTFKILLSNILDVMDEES
Chain of Transcription intermediary factor 1-alpha (O15164 whole entry): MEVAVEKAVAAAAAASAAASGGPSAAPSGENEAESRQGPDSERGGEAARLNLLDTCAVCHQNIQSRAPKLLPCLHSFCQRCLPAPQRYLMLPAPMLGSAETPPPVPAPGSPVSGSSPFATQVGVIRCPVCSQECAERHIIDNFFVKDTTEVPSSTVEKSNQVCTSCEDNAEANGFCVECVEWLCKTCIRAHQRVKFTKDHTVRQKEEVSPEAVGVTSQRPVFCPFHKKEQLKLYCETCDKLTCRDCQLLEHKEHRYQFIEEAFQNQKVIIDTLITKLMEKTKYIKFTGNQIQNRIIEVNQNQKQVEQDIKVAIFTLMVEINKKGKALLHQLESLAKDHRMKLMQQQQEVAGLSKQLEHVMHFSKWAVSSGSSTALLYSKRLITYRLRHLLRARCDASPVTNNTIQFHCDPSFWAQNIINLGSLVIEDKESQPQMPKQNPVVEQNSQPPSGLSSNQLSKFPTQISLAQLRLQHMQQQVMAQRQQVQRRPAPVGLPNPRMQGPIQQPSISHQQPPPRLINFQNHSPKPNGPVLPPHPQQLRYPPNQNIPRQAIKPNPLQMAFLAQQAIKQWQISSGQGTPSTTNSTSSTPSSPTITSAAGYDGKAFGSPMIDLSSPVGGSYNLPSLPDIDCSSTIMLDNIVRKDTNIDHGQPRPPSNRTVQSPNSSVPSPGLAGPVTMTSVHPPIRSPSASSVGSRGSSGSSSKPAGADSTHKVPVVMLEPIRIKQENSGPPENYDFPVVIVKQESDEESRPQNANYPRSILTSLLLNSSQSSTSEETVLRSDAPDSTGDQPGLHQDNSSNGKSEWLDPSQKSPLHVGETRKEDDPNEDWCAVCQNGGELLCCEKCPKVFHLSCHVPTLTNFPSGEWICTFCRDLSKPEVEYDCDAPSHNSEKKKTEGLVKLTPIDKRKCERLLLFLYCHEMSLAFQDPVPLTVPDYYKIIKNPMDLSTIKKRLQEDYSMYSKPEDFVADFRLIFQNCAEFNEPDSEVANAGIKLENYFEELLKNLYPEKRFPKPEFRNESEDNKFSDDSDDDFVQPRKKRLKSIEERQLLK
Chain of ALK tyrosine kinase receptor (Homo sapiens) (Q9UM73 19-1620 limits assumed): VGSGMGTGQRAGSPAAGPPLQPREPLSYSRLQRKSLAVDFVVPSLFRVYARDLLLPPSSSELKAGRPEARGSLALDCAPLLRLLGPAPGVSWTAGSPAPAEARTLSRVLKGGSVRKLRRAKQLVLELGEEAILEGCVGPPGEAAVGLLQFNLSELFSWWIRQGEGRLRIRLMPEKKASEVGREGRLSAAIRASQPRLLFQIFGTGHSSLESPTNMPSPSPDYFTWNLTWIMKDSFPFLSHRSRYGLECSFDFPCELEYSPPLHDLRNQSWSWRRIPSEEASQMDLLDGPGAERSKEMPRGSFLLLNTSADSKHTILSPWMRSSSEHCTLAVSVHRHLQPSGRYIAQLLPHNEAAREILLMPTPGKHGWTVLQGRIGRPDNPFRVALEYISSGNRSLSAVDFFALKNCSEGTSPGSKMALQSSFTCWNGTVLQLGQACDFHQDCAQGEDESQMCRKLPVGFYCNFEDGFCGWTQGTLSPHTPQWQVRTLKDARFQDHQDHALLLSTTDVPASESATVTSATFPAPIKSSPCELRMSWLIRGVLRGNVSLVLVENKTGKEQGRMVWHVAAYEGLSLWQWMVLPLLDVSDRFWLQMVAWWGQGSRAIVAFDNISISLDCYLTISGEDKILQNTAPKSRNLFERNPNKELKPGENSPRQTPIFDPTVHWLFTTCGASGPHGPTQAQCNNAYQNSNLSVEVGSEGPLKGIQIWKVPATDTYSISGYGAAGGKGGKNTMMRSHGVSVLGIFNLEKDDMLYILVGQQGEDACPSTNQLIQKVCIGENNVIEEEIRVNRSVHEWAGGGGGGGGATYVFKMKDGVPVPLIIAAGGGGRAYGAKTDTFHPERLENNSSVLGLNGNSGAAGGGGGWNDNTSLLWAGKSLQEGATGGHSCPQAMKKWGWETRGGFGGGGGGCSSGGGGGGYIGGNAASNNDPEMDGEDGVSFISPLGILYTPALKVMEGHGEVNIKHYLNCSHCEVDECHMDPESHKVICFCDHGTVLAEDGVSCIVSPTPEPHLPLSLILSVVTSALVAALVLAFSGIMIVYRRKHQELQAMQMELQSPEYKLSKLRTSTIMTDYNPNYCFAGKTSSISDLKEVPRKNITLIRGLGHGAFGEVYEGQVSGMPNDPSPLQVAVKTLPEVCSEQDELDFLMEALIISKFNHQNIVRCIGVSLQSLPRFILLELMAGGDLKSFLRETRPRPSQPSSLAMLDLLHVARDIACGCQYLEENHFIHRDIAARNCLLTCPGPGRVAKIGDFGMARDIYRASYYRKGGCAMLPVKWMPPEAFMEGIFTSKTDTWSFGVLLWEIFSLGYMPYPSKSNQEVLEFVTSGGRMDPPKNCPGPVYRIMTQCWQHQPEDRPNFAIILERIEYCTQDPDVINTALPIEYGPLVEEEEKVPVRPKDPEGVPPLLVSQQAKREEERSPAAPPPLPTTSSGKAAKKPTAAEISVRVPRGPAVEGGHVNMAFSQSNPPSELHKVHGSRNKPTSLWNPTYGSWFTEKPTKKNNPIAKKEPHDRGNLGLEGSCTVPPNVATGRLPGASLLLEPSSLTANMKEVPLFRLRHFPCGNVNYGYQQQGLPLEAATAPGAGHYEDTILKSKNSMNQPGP
T1 sequence (Q96SW2 whole entry): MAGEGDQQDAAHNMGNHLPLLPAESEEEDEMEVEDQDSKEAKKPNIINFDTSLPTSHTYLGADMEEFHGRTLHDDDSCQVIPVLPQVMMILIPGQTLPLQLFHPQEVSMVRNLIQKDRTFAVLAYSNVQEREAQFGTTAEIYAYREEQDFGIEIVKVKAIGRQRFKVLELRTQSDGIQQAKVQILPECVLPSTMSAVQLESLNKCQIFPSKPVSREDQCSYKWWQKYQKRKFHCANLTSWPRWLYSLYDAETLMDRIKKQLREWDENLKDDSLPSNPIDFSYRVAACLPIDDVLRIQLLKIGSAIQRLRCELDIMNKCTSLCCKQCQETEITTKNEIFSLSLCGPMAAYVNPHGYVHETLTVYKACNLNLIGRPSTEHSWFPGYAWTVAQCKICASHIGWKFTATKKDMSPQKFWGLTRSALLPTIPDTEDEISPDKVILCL
Chain of Transcription intermediary factor 1-alpha (Homo sapiens) (O15164 whole entry): as the sequence (O15164 whole entry) above
Chain of Bromodomain-containing protein 3 (Q15059 whole entry): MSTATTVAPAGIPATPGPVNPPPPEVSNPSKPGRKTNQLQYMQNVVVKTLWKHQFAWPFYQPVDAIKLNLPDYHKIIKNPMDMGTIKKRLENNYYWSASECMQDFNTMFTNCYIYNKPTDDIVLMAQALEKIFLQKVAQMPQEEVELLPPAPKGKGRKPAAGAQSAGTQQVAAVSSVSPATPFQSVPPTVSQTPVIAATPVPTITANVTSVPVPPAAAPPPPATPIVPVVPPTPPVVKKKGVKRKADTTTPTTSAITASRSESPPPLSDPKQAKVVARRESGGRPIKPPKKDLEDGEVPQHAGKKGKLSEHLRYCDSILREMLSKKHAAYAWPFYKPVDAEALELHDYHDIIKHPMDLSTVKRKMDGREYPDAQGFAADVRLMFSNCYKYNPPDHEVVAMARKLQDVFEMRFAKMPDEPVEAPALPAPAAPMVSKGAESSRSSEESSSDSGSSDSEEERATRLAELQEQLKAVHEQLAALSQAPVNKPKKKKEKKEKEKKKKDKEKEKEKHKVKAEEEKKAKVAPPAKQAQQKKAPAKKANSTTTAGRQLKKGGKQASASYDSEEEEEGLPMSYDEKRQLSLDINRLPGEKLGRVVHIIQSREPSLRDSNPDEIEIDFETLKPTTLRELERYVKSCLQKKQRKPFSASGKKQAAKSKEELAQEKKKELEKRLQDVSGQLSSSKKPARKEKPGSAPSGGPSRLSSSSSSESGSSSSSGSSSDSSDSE

For Cc1ncsc1-c1ccc(CNC(=O)[C@@H]2C[C@@H](O)CN2C(=O)[C@@H](NC(=O)COCCCCCOCCOCCCCCOCC(=O)NCCNc2cccc3c2C(=O)N(C2CCC(=O)NC2=O)C3=O)C(C)(C)C)cc1 (some centres undefined), the DC50 (Protein cereblon [1]) was 200 nM and the Emax (Protein cereblon [2]) was 75%.
With Cc1ncsc1-c1ccc(CNC(=O)[C@@H]2C[C@@H](O)CN2C(=O)[C@@H](NC(=O)OCC(C)(COCCOCCOCCNC(=O)C[C@@H]2N=C(c3ccc(Cl)cc3)c3c(sc(C)c3C)-n3c(C)nnc32)COCCOCCOCCNC(=O)C[C@@H]2N=C(c3ccc(Cl)cc3)c3c(sc(C)c3C)-n3c(C)nnc32)C(C)(C)C)cc1 the DC50 [3] was 0.7 nM, the IC50 (MV4-11) was 1.1 nM and the DC50 [4] was 3.3 nM. The DC50 [5] was 1.1 nM.
For CCCOc1cccc(Oc2cc3c(cc2NS(=O)(=O)c2ccc(OC)c(OC)c2)n(C)c(=O)n3C)c1, the IC50 [6] was 218 nM.
Compound Cc1ncsc1-c1ccc([C@H](C)NC(=O)[C@@H]2C[C@@H](OC(=O)CCCCn3cc(CNC(=O)CC[C@H](NC(=O)c4ccc(NCc5cnc6nc(N)[nH]c(=O)c6n5)cc4)C(=O)O)nn3)CN2C(=O)[C@@H](NC(=O)COCCCOCCNC(=O)C[C@@H]2N=C(c3ccc(Cl)cc3)c3c(sc(C)c3C)-n3c(C)nnc32)C(C)(C)C)cc1 has an IC50 (HeLa) of 246 nM, an Emax [7] of 100% and an IC50 (HFF-1) greater than 10000 nM.
With C=CC(=O)N1C[C@@H](n2nc(-c3ccc(Oc4ccccc4)cc3)c3c(N)ncnc32)C[C@H]1C(=O)OCCOCCOCC(=O)N[C@H](C(=O)N1C[C@H](O)C[C@H]1C(=O)NCc1ccc(-c2scnc2C)cc1)C(C)(C)C the DC50 [8] was 136 nM, the Emax [9] was 88% and the DC50 [10] was 220 nM. It also gave an Emax [11] of 75%.
Compound CC(C)(/C=C(\C#N)C(=O)N1CCC[C@@H](n2nc(-c3ccc(Oc4ccccc4)cc3)c3c(N)ncnc32)C1)CCCOCCOCCOCCOCCOc1cccc2c1C(=O)N(C1CCC(=O)NC1=O)C2=O (some centres undefined) has an Emax [12] of 85% and a DC50 [13] of 6 nM.
Work on Cc1cc(Nc2ncc(Cl)c(Nc3ccccc3S(=O)(=O)C(C)C)n2)c(OC(C)C)cc1C1CCN(CC(=O)NCCNc2cccc3c2C(=O)N(C2CCC(=O)NC2=O)C3=O)CC1 (centres undefined) yielded an Emax [14] of 90% and an IC50 (SU-DHL-1) of 16 nM.
Nc1ncnc2c1c(-c1ccc(Oc3ccccc3)cc1)nn2[C@@H]1CCCN(C(=O)CCCCCCOCCOCCOCCOCCOc2cccc3c2C(=O)N(C2CCC(=O)NC2=O)C3=O)C1 (some centres undefined) gave an Emax [12] of 97% and a DC50 [13] of 2.2 nM.
CCCOc1cccc(Oc2cc3c(cc2NS(=O)(=O)c2cccc(C(=O)NCCOCCOCCOCC(=O)N[C@@H](C(=O)N4C[C@@H](O)C[C@@H]4C(=O)NCc4ccc(-c5scnc5C)cc4)C(C)(C)C)c2)n(C)c(=O)n3C)c1 showed an IC50 [6] of 338 nM and an Emax [15] of 72%.
Work on C[C@H]1[C@H](C)CC[C@]2(C(=O)NCCOCCOCCOCCNc3cccc4c3C(=O)N(C3CCC(=O)NC3=O)C4=O)CC[C@]3(C)C(=CC[C@@H]4[C@@]5(C)CC[C@H](O)C(C)(C)[C@@H]5CC[C@]43C)[C@H]12 (some centres undefined) yielded an IC50 (Huh-7) of 390 nM, an IC50 (A549 [16]) of 230 nM and an IC50 (HepG2) of 380 nM.
CCOc1cc(C(C)(C)C)ccc1C1=N[C@@H](c2ccc(Cl)cc2)[C@@H](c2ccc(Cl)cc2)N1C(=O)N1CCN(CC(=O)NCCOCCOCCOCCNC(=O)CN2CCN(C(=O)N3C(c4ccc(C(C)(C)C)cc4OCC)=N[C@H](c4ccc(Cl)cc4)[C@@H]3c3ccc(Cl)cc3)CC2=O)C(=O)C1 showed an IC50 (HCT-116 [17]) of 21000 nM, an IC50 (HCT-116 [18]) of 1100 nM and a half-life [19] of 9.6 h. The AUC [20] was 42800 ng·h/mL, the Ki [21] was 90 nM and the inhibition in vivo at 30 mg/kg (A549 [22]) was 52.4%. For the same compound, the IC50 (A549 [16]) was 580 nM.
Work on Cc1cc(Nc2ncc(Cl)c(Nc3ccccc3S(=O)(=O)C(C)C)n2)c(OC(C)C)cc1C1CCN(CCCCC(=O)N[C@H](C(=O)N2C[C@H](OC(=O)CCCCn3cc(CNC(=O)CC[C@H](NC(=O)c4ccc(NCc5cnc6nc(N)[nH]c(=O)c6n5)cc4)C(=O)O)nn3)C[C@H]2C(=O)N[C@@H](C)c2ccc(-c3scnc3C)cc2)C(C)(C)C)CC1 yielded an IC50 (SU-DHL-1) of 200 nM and an Emax [23] of 100%.
